# Laboratory results: ChEMBL document CHEMBL5236615, “Discovery of Novel N-Heterocyclic-Fused Deoxypodophyllotoxin Analogues as Tubulin Polymerization Inhibitors Targeting the Colchicine-Binding Site for Cancer Treatment” (J Med Chem, 2022)
# Calls of active or inactive are those of the source. No cut-off for these calls is given here.
# Columns and labels:
# [1] = Cmax in Sprague-Dawley rat at 10 mg/kg, iv measured upto 8 hrs by LC/MS/MS analysis; assay type: ADME, organism-based; set-up: dose 10 mg/kg, time < 8 hrs, route iv; conditions: in vivo
# [2] = Clearance in Sprague-Dawley rat at 10 mg/kg, iv measured upto 8 hrs by LC/MS/MS analysis; assay type: ADME, organism-based; conditions: in vivo
# [3] = Cardiotoxicity in Sprague-Dawley rat assessed as heart rate at 10 to 60 mg/kg, iv measured upto 60 mins by electrocardiography; assay type: toxicity, organism-based; conditions: in vivo, 1 h, dose 10-60 mg/kg
# [4] = Toxicity in Balb/c mouse assessed as pathological changes in blood aspartate aminotransferase level at 20 mg/kg, ip administered for every 2 days for 14 days; assay type: organism-based; conditions: in vivo, 336 h, time 14 day
# MCF7 = assay: Induction of apoptosis in human MCF7 cells assessed as upregulation of p-Bim EL protein expression at 5 to 20 nM in presence of roscovitine measured after 24 hrs by Western blot analysis; assay type: functional, cell-based; conditions: dose 5-20 nM
# Tubulin (Homo sapiens) = Tubulin (Homo sapiens) (UniProt P68371+Q9H4B7+P0DPH7+P68366+Q13509+Q71U36+P04350+Q3ZCM7+P07437+P68363+Q9BQE3+Q6PEY2+Q13885+Q9BVA1+Q9BUF5); assay: Disruption of microtubule network in human MCF7 cells assessed as broken microtubule filaments at 20 nM measured after 6 hrs by immunofluorescence assay; assay type: cell-based
compound,measurement,setting,value
COc1c(Cl)cc([C@@H]2c3cc4c(cc3C[C@H]3C(=O)NC(=O)N23)OCCO4)cc1Cl,Cmax,[1],7291 ng/mL
same,CL,[2],65 mL/min/kg
same,Activity,[3],Non-Toxic
same,Activity,[4],Non-Toxic
same,Activity,MCF7,inactive
same,Activity,Tubulin (Homo sapiens),Active
